Entries after “also recorded” stand apart in the source; their conditions may differ. Like-named read-outs stand apart in the source and are kept apart here.
Assays:
[1] = system: C. parvum; test: In vitro anti-Cryptosporidium activity in infected HCT-8 cells (immunofluorescence assay); assay type: cell-based, Cryptosporidium parvum; settings: for effect on in vitro proliferation and viability of C. parvum: 25 μM, added immediately after infection, 48 h of culture, vs untreated parasites; for EC50: Cryptosporidium parvum; for Selectivity index (CC50/EC50): HCT-8 CC50 / anti-C. parvum EC50; for effect on proliferation of intracellular C. parvum in HCT-8 cells: varying concentrations, 0 h or 2 h PI, analysed 48 h PI, vs infected cultures without compound
Procedure: Once confluent, the cells were infected with 10^5 freshly excysted C. parvum sporozoites per well, immediately followed by the addition of anti-CpPyK compounds (reconstituted in DMSO) to one set of wells. Control infected cells were treated with DMSO volumes equivalent to those used for the compound-treated cultures. Paromomycin reconstituted in distilled sterile water, served as a positive control at a concentration of 200 μM. […] Briefly, the medium was removed from the culture wells, and the cells were washed two times with PBS before fixation with pre-chilled methanol-acetic acid (9:1) for 5 min at room temperature. Residual fixative was removed by rinsing the wells with PBS. Cells were rehydrated and permeabilized by washing twice with a buffer containing 0.1% Triton X-100, 0.35 M NaCl, and 0.13 M Tris-base, pH 7.6. Normal goat serum (5% in PBS) was used as a blocking agent, and the cell monolayer was stained with a fluorescein-labeled anti-C. parvum polyclonal antibody (Sporo-Glo™; Waterborne, Inc.) overnight at 4°C. The stained cells were washed twice with PBS followed by the addition of 200 μl water to each well. Plates were then imaged with an inverted fluorescence microscope using a 20× objective. The fluorescence generated by intracellular C. parvum parasites was quantified from nine microscopic fields per well of a 96-well plate using the batch process function in ImageJ version v1.50 (NIH, United States) after setting a threshold for the detection of parasites. Control wells with uninfected monolayers were included for background subtraction. Experiments were performed in triplicate and repeated at least three times.
One set of wells with confluent HCT-8 cells received CpPyK inhibitors immediately after C. parvum infection, while the same compounds were added to the other set of wells 2 h post-infection (PI). Control infected cells were treated with varying volumes of DMSO equivalent to the ones used for the compound-treated cultures. Cell monolayers were processed for immunofluorescence analysis after 48 h of incubation as described above. Samples were run in triplicate and three independent assays were performed. EC50 values were calculated using non-linear regression analysis of the mean dose-response curve data in GraphPad PRISM® v8.

[2] = Tolerability in uninfected mice, daily oral gavage; assay type: in vivo; settings: 10 mg/kg daily oral administration, 8 days
Procedure: (§1) Eight weeks old male interferon-gamma knockout (IFN-γ KO) mice (B6.129S7-Ifng^TM1Ts/J) were purchased from The Jackson Laboratory, United States, and allowed to quarantine and acclimatize for 1 week before the commencement of experiments. Before the start of the infection assays in mice, the tolerability of each inhibitor was determined by daily oral gavage with varying dosages (0–10 mg/kg mouse bodyweight) in groups of mice (n = 3 mice per group) for 8 days. During this period, mice were monitored daily for any changes in physical and mental activity, feeding, body weight, body temperature, fur condition, and body posture. […] Mice were divided into infected and uninfected groups (n = 3 mice per group) and each individual mouse was housed in a separate cage lined with sterile gauze bedding. Each mouse from the infected group was infected by oral gavage administration of 10^4 C. parvum AUCP-1 isolate oocysts suspended in 50 μl of PBS. Beginning day 3 PI, groups of mice were orally treated with CpPyK inhibitors (at the specified doses), sham (100 μl of 5% DMSO in PBS), or 1,000 mg/kg paromomycin (in sterile water) once daily for a total of 8 days. Fecal pellets were collected daily in individual sterile 15 ml tubes, and submerged in an equivalent volume of PBS containing a cocktail of penicillin (100 units/ml), streptomycin (100 μg/ml), chloramphenicol (34 μg/ml), and amphotericin (0.25 μg/ml), and stored at 4°C until use. Three independent replicate infection assays were performed. Mice were sacrificed at day 11 PI, and 5 cm of the distal small intestine just anterior to the cecum was resected and submerged in 10% neutral buffered formalin and submitted for histopathological processing in the Comparative Biosciences Histology Laboratory at the University of Illinois at Urbana-Champaign. Briefly, intestinal tissues preserved in 10% neutral buffered formalin were washed in 70% ethanol, embedded in paraffin, and sectioned transversely at a thickness of 5 μm. Sections were stained with hematoxylin and eosin. The slides were imaged using a Zeiss microscope fitted with a color camera.

[3] = system: C. parvum; test: In vivo efficacy in C. parvum-infected IFN-γ KO mice, fecal oocysts load by qPCR; set-up: species or system Cryptosporidium parvum; settings: for relative potency among the treatments (oocysts load): 2.5 mg/kg NSC638080, NSC303244, NSC252172, 5 mg/kg NSC234945, paromomycin 1,000 mg/kg; for reduction in oocysts load compared to untreated mice / oocysts load compared to untreated mice: 10 mg/kg oral once daily; for reduction in oocysts load compared to untreated mice: day 9 PI; for oocysts load compared to untreated mice / potency, fold higher than paromomycin (1,000 mg/kg): day 10 PI; for potency, fold higher than paromomycin (1,000 mg/kg): 10 mg/kg
Procedure: as §1
DNA was isolated from 250 mg of feces collected from individual mice using the QIAamp® PowerFecal® Pro DNA kit (Qiagen, United States) following the manufacturer’s protocol. Oocysts load per gram of feces was measured by quantitative real time PCR (qPCR) analysis of the Cp18s rRNA gene (GenBank accession number AF164102) using gene-specific primers: 5′-[…]-3′ (Forward) and 5′-[…]-3′ (Reverse), described previously ([Parr et al., 2007]). To generate a quantification standard curve, fecal samples were obtained from uninfected mice and spiked with 10^8 C. parvum oocysts per gram of feces, followed by isolation of DNA as described above. Ten-fold serial dilutions of the extracted DNA were made and used as quantification standards for qPCR. C. parvum oocysts load quantification for the test mice was performed using DNA samples from the infected feces. Each 20 μl qPCR reaction contained 10 μl of PowerUp™ SYBR™ Green Master Mix (Applied Biosystems, United States), 500 nM of each primer, and 2 μl of DNA template. After 2 min of initial denaturation at 95°C, 40 cycles of denaturation at 95°C for 15 sec and annealing/extension at 60°C for 1 min were performed in a 7500 Real-Time PCR System (Applied Biosystems, United States). The oocyst load per gram of feces was derived by the 7500-system software using the generated quantification standard curves (Supplementary Figure 1).

[4] = system: C. parvum; test: Histopathology of distal small intestine of C. parvum-infected IFN-γ KO mice; assay type: in vivo, Cryptosporidium parvum; settings: sacrificed day 11 PI
Procedure: as §1

[5] = Solubility; assay type: physicochemical; settings: DMSO
[6] = HCT-8, read-out: Anti-C. parvum EC50, 0 h PI
[7] = HCT-8, read-out: Anti-C. parvum EC50, 2 h PI
[8] = 10 mg/kg daily oral from day 3 PI
[9] = 2.5 mg/kg oral once daily from day 3 PI for 8 days
[10] = 2.5 mg/kg daily oral from day 3 PI

| Structure (SMILES) | effect on in vitro proliferation and viability of C. parvum [1] | EC50 [1, 6] | EC50 [1, 7] | Selectivity index (CC50/EC50) [1] | effect on proliferation of intracellular C. parvum in HCT-8 cells [1] | toxicity signs in uninfected mice [2] | relative potency among the treatments (oocysts load) [3] | oocysts load by day 9 PI vs other treatments and untreated group ([3]; 5 mg/kg oral once daily from day 3 PI) | load of C. parvum oocysts shed in feces ([3]; 5 mg/kg oral once daily from day 3 PI for 8 days) | reduction in oocysts load compared to untreated mice [3] | oocysts load compared to untreated mice [3] | potency, fold higher than paromomycin (1,000 mg/kg) [3] | intestinal pathology (histology, distal small intestine) [4, 8] | solubility in DMSO [5] | load of C. parvum oocysts shed in feces [3, 9] | intestinal pathology (histology, distal small intestine) [4, 10] |
| --- | --- | --- | --- | --- | --- | --- | --- | --- | --- | --- | --- | --- | --- | --- | --- | --- |
| c1ccc(-c2nnc(-c3ccccn3)[nH]2)nc1 [NSC234945, 2-(3-pyridin-2-yl-1H-1,2,4-triazol-5-yl)pyridine] | significant inhibitory effect | 86 µM | 89.6 µM | 5.02 | significant (P < 0.05) concentration-dependent inhibitory effect | did not induce any toxicity signs | highest potency | significantly (P < 0.05) lower oocysts loads | significant reduction | about threefold reduction in oocysts load | about ninefold lower oocysts load | about 2.5 fold | best efficacy; also recorded: notably reduced pathological changes | high solubility in DMSO |  |  |
| CCOc1ccc(/C=C2\CCc3ccccc3C2=O)cc1 [NSC252172, (2E)-2-[(4-ethoxyphenyl)methylidene]-3,4-dihydronaphthalen-1-one] | significant inhibitory effect | 17.6 µM | 18.7 µM | 15.10 | significant (P < 0.05) concentration-dependent inhibitory effect | did not induce any toxicity signs |  |  |  | about threefold reduction in oocysts load | about ninefold lower oocysts load | about 2.5 fold | notably reduced pathological changes |  | significant reduction |  |
| Cc1cc2c(c(C#N)c1C)NC=NC2C (stereo not drawn) [NSC303244, 4,6,7-trimethyl-1,4-dihydroquinazoline-8-carbonitrile] | significant inhibitory effect | 10.3 µM | 15.8 µM | 64.15 | significant (P < 0.05) concentration-dependent inhibitory effect | did not induce any toxicity signs |  |  |  |  |  |  |  |  | significant reduction | reduced intestinal pathology |
| N#C/C(=C\c1cc(O)c(O)c(O)c1)C(N)=O [NSC638080, (E)-2-cyano-3-(3,4,5-trihydroxyphenyl)prop-2-enamide] | significant inhibitory effect | 10.9 µM | 14.7 µM | 68.96 | significant (P < 0.05) concentration-dependent inhibitory effect | did not induce any toxicity signs | least efficacy |  |  |  |  |  |  |  | significant reduction | reduced intestinal pathology |
